How the values were obtained:
QT interval [1] = assay: ABCC2 SNP genotypes and QT prolongation following administration of iloperidone; assay type: in vivo, human; conditions: QTcF
Experimental: (§1) Since the QT interval changes with changes in heart rate, the QT interval is often measured as a corrected QT (QTc) interval. Any number of formulas may be employed to calculate the QTc, including, for example, the Fridericia formula (QTcF), the Bazett formula (QTcB), and the Rautaharju formula (QTp), among others. In the studies described herein, QT was calculated using the Fridericia formula. However, the present invention includes the use of any such formula or method for calculating a QTc or an uncorrected QT.

QT interval [2] = assay: QT prolongation and rs7067971 genotype in individuals given oral iloperidone for two weeks; assay type: in vivo, human; conditions: for High QT, + test (number of individuals) / Low QT, + test (number of individuals): rs7067971 GG; for High QT, + test (number of individuals) / Low QT, + test (number of individuals) / High QT, − test (number of individuals) / Low QT, − test (number of individuals): 24 mg/day B.I.D. oral, two weeks; for High QT, − test (number of individuals) / Low QT, − test (number of individuals): rs7067971 non-GG; for Odds Ratio: rs7067971 GG test
Experimental: as §1, with “QT. Using the genotypes at the SNP loci above, it is possible, with a high degree of certainty, to predict an individual's predisposition to QT prolongation.” for “QT.”

COc1cc(C(C)=O)ccc1OCCCN1CCC(c2noc3cc(F)ccc23)CC1 [iloperidone]
Lowest QTc change (genotype) (QT interval [1]; SNP_A-2004488, rs2256678, allele A C, allele B T): non-BB | Lowest QTc change (genotype) (QT interval [1]; SNP_A-2068049, rs7067971, allele A A, allele B G): non-BB | Lowest QTc change (genotype) (QT interval [1]; SNP_A-2253129, rs4919395, allele A C, allele B T): non-BB | Lowest QTc change (genotype) (QT interval [1]; SNP_A-2262953, rs2804398, allele A A, allele B T): non-BB | Lowest QTc change (genotype) (QT interval [1]; SNP_A-4268713, rs2256700, allele A A, allele B G): non-BB | High QT, + test (number of individuals) (QT interval [2]; change threshold QT > 5 msec): 13 | Low QT, + test (number of individuals) (QT interval [2]; change threshold QT > 5 msec): 0 | High QT, − test (number of individuals) (QT interval [2]; change threshold QT > 5 msec): 101 | Low QT, − test (number of individuals) (QT interval [2]; change threshold QT > 5 msec): 64 | Odds Ratio (QT interval [2]; change threshold QT > 15 msec): 9.38 | High QT, + test (number of individuals) (QT interval [2]; change threshold QT > 15 msec): 11 | Low QT, + test (number of individuals) (QT interval [2]; change threshold QT > 15 msec): 2 | High QT, − test (number of individuals) (QT interval [2]; change threshold QT > 15 msec): 61 | Low QT, − test (number of individuals) (QT interval [2]; change threshold QT > 15 msec): 104 | Odds Ratio (QT interval [2]; change threshold QT > 30 msec): 5.88 | High QT, + test (number of individuals) (QT interval [2]; change threshold QT > 30 msec): 6 | Low QT, + test (number of individuals) (QT interval [2]; change threshold QT > 30 msec): 7 | High QT, − test (number of individuals) (QT interval [2]; change threshold QT > 30 msec): 21 | Low QT, − test (number of individuals) (QT interval [2]; change threshold QT > 30 msec): 144
